Results reported in patent publication US20240067657A1, “AMIDO-SUBSTITUTED PYRIDYL COMPOUNDS AND METHODS OF USE THEREOF FOR THE TREATMENT OF HERPESVIRUSES” (Merck Sharp & Dohme LLC, priority 2020, published 2024).
Read-outs that look alike come from different tables or passages of the source.

Columns and labels:
[1] = molecular target: T1, Human cytomegalovirus DNA polymerase (Human cytomegalovirus, UniProt P08546); assay: HCMV polymerase assay (AlphaLISA, IC50); format: biochemical; details: polymerase assay of Example 190
T1 construct: made in house; host or cells: SF21 insect cells (baculovirus vector)
T1 sequence (P08546 whole entry): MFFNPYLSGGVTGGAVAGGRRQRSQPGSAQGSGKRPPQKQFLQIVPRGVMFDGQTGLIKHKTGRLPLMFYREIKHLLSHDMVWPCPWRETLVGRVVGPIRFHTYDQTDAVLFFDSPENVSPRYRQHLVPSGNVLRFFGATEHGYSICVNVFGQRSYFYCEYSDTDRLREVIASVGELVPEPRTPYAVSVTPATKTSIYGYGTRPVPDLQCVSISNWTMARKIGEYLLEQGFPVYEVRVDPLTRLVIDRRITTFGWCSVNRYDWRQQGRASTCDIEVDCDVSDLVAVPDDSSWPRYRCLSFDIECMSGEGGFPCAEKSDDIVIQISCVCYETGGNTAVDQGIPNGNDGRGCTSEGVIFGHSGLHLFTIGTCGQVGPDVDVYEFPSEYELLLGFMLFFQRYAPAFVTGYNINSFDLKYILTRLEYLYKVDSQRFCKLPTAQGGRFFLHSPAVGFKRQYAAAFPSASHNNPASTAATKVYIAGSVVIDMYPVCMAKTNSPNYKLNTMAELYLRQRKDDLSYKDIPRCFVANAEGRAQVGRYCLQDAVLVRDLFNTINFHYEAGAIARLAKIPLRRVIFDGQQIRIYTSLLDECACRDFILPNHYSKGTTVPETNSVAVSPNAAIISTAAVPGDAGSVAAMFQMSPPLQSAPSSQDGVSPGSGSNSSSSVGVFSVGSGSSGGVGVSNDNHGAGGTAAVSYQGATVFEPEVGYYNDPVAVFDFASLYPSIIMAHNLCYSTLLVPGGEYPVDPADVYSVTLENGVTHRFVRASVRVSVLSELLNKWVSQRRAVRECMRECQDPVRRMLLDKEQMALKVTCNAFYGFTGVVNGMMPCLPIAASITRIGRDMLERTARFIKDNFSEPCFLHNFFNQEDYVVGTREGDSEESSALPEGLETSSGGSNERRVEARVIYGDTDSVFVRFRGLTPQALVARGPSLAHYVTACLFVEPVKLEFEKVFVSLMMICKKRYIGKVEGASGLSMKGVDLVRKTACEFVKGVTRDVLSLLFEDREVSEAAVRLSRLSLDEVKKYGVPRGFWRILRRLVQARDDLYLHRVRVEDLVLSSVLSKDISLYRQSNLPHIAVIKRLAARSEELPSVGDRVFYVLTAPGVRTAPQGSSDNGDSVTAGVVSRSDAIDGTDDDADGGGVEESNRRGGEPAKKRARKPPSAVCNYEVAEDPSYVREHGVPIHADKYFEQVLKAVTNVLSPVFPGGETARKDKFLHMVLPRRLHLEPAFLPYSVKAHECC
Method in brief: (§1)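 Baculovirus-expressed polymerase (HCMV 0.2 nM, VZV 0.4 nM final) preincubated 30 min at room temperature with compound in pH 7.5 HEPES buffer; reaction started with 1.6 nM DIG-primer/template and nM dNTPs including biotin-dUTP, run 60 min at 37° C. Incorporation detected by AlphaLISA; IC50 from 4-parameter fit.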

[2] = molecular target: T2, varicella zoster virus DNA polymerase (Varicella-zoster virus, UniProt P09252); assay: VZV polymerase assay (AlphaLISA, IC50); format: biochemical; details: polymerase assay of Example 190
T2 construct: made in house; host or cells: SF21 insect cells (baculovirus vector)
T2 sequence (P09252 whole entry): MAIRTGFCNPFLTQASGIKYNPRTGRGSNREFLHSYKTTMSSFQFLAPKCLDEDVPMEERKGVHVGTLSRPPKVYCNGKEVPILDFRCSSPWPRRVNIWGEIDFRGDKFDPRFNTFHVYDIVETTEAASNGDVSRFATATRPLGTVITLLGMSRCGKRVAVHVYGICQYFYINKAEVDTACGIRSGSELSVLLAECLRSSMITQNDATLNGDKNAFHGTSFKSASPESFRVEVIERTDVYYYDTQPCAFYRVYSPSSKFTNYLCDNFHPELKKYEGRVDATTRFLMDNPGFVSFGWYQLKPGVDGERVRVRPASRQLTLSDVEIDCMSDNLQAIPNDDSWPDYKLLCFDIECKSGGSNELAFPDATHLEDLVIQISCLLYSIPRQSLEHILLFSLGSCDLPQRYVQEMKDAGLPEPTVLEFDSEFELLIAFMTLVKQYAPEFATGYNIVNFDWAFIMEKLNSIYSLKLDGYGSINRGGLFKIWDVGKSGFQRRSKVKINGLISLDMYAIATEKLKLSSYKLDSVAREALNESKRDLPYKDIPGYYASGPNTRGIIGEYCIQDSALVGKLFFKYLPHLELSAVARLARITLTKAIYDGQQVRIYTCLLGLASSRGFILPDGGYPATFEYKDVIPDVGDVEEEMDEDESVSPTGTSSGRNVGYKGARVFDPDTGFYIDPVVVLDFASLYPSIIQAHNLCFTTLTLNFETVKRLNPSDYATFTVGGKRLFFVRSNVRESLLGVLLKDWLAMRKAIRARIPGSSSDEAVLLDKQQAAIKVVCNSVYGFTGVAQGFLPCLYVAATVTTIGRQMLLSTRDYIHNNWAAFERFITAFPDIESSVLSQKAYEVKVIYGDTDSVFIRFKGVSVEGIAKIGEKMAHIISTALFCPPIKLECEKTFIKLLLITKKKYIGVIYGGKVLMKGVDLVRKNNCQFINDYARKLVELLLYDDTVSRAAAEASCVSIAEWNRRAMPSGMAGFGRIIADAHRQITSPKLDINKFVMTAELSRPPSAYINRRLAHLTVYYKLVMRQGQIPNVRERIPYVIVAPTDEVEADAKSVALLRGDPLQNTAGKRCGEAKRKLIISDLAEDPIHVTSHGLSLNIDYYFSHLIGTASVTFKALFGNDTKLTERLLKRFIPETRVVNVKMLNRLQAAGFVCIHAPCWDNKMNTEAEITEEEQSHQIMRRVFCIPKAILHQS
Method in brief: as §1

[3] = system: HCMV Strain AD169 in MRC-5 cells; assay: Viral qPCR assay HCMV (V0/V1, V2/V3), EC50; format: cell-based; details: Human betaherpesvirus 5, AD169, MRC5, viral qPCR assay of Example 191; read-out: HCMV Cell (EC50)
Method in brief: (§2)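 Infected cells added to compounds (10-point 3-fold series), ~72 h at 37 °C, then lysed; viral genomes by TaqMan qPCR against plasmid standard, normalized to PPIA in V0/V1 only, EC50 from 4-parameter fit. HCMV AD169, 0.05-0.1 pfu/cell, ± 50% FBS; VZV 0.04-0.1 pfu/cell; HSV-1 F 0.0005-0.004 pfu/cell.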

[4] = system: VZV in MeWo or MRC5 cells; assay: Viral qPCR assay VZV (V0/V1, V2/V3), EC50; format: cell-based; details: 10%
Method in brief: as §2

[5] = system: HSV-1 Strain F in Vero or MRC5 cells; assay: Viral qPCR assay HSV-1 (V0/V1, V2/V3), EC50; format: cell-based; details: 10%
Method in brief: as §2

[6] = Human alphaherpesvirus 3, MeWo, MEWO cells, read-out: VZV Cell (EC50) MEWO 10%
[7] = Human alphaherpesvirus 1, Vero, VERO cells, read-out: HSV1 Cell (EC50) VERO 10%
[8] = Human alphaherpesvirus 3, MRC5, MRC5 cells, read-out: VZV Cell (EC50) MRC5 10%
[9] = Human alphaherpesvirus 1, MRC5, MRC5 cells, read-out: HSV1 Cell (EC50) MRC5 10%

Compound | IC50 [1] [nM] | IC50 [2] [nM] | EC50 [3] [nM] | EC50 [4, 6] [nM] | EC50 [5, 7] [nM] | EC50 [4, 8] [nM] | EC50 [5, 9] [nM] | EC50 ([4]; MRC5 cells, read-out: VZV Cell (EC50) MRC5 10%) [nM] | EC50 ([5]; MRC5 cells, read-out: HSV1 Cell (EC50) MRC5 10%) [nM]
CC(C)n1cc(-c2c[n+]([O-])c(C(=O)NCc3ccc(Cl)cc3)cc2O[C@H]2CCN3C(=O)OC[C@@H]3C2)cn1 [Compound 131] | 11.8 | 11 | 98.5 | 158 | 268 | – | – | – | –
O=C(NCc1ccc(Cl)cc1)c1cc(O[C@H]2CCN3C(=O)OC[C@@H]3C2)c(CN2CCC(O)CC2)cn1 [Compound 135] | 90 | 41.1 | 634 | 344 | 9210 | – | – | – | –
O=C(NCc1ccc(Cl)cc1)c1cc(O[C@H]2CCN3C(=O)OC[C@@H]3C2)c(OCC(F)(F)F)cn1 [Compound 126] | 25.8 | 16.6 | 572 | 488 | 154 | 1460 | 1960 | – | –
O=C(NCc1ccc(Cl)cn1)c1cc(O[C@H]2CCN3C(=O)OC[C@@H]3C2)c(-c2cnn(C(F)F)c2)cn1 [Compound 90] | 189 | 105 | 1040 | 737 | 853 | 5990 | 2550 | – | –
O=C(NCc1ccc([N+](=O)[O-])cc1)c1cc(O[C@H]2CCN3C(=O)OC[C@@H]3C2)c(-c2cnn(C(F)F)c2)cn1 [Compound 82] | 16 | 9.02 | 90.5 | – | – | 243 | 125 | – | –
Cn1cc(-c2cnc(C(=O)NCc3ccc(Cl)cc3)cc2O[C@H]2CCN3C(=O)NC[C@H]3C2)cn1 (racemic) [Compound 171] | 219 | 87.7 | 1090 | 883 | 1950 | – | – | – | –
CC(C)(O)C1CCN(c2cnc(C(=O)NCc3ccc(Cl)cc3)cc2O[C@H]2CCN3C(=O)OC[C@@H]3C2)C1 (single isomer, unassigned) [Compound 117-1] | 22.7 | 10.5 | 360 | – | – | – | – | 844 | 566
COC1CC(c2cnc(C(=O)NCc3ccc(Cl)cc3)cc2O[C@H]2CCN3C(=O)OC[C@@H]3C2)C1 (stereo partly drawn) [Compound 110] | 22 | 4.84 | 354 | – | – | 1520 | 998 | – | –
Cn1cc(-c2cnc(C(=O)NCc3ccc(Cl)cc3F)cc2O[C@H]2CCN3C(=O)OC[C@@H]3C2)cn1 [Compound 97] | 14 | 15.7 | 101 | 95.5 | 191 | – | – | – | –
O=C(NCc1ccc(Cl)cc1)c1cc(O[C@H]2CCN3C(=O)OC[C@@H]3C2)c(CN2CCC3OCCC32)cn1 (mixture of isomers) [Compound 142] | 17.8 | 12.9 | 243 | – | 453 | 490 | – | – | –
CC(C)n1cc(-c2cnc(C(=O)NCc3ccc(Cl)cc3)cc2O[C@H]2CCN3C(=O)OC[C@@H]3C2)cn1 [Compound 21] | 15.6 | 13.9 | 282 | 205 | 206 | – | – | – | –
O=C(NCc1ccc(Cl)cc1)c1cc(O[C@H]2CCN3C(=O)OC[C@@H]3C2)c(-c2nccs2)cn1 [Compound 40] | 10.4 | 9.39 | 55.7 | 16.7 | 30.8 | – | – | – | –
CN(C)CCn1cc(-c2cnc(C(=O)NCc3ccc(Cl)cc3)cc2O[C@H]2CCN3C(=O)OC[C@@H]3C2)cn1 (racemic) [Compound 10] | 80.1 | 41.7 | 178 | 375 | 1360 | – | – | – | –
CS(=O)(=O)N1CCC(Oc2cc(C(=O)NCc3ccc(Cl)cc3)ncc2Cl)CC1 [Compound 151] | 238 | 232 | 5340 | 1410 | 1030 | – | – | – | –
CCn1cc(-c2cnc(C(=O)NCc3ccc(Cl)cc3)cc2O[C@H]2CCN3C(=O)OC[C@@H]3C2)cn1 (racemic) [Compound 16] | 20.8 | 11.2 | 188 | 165 | 200 | – | – | – | –
Cc1ccn(-c2cnc(C(=O)NCc3ccc(Cl)cc3)cc2O[C@H]2CCN3C(=O)OC[C@@H]3C2)n1 [Compound 106] | 224 | 197 | 923 | 288 | 575 | – | – | – | –
Cc1cc(-c2cnc(C(=O)NCc3ccc(Cl)cc3)cc2O[C@H]2CCN3C(=O)OC[C@@H]3C2)on1 [Compound 150] | 7.76 | ≤ 0.444 | 110 | – | – | 144 | 78.2 | – | –
C[C@@H]1CN(C)CCN1c1cc(C(=O)NCc2ccc(Cl)cc2)ncc1C#N [Compound 175] | 48.2 | 76.9 | 1220 | – | – | 3320 | 3390 | – | –
CC(=O)N1CCC(Oc2cc(C(=O)NCc3ccc(Cl)cc3)ncc2-c2ncc(C)s2)CC1 [Compound 63] | 13.5 | 11.1 | 246 | – | 34.2 | 215 | 310 | – | –
O=C(NCc1ccc(Cl)cc1)c1cc(O[C@H]2CCN3C(=O)OC[C@@H]3C2)c(CNC2CC2)cn1 [Compound 141] | 77.5 | 44.8 | 554 | – | 287 | 2210 | – | – | –
O=C(NCc1ccc(Cl)cc1)c1cc(O[C@H]2CCN3C(=O)OC[C@@H]3C2)c(-c2cnn(CC(F)(F)F)c2)cn1 [Compound 17] | 23.1 | 21 | 380 | 368 | 426 | – | – | – | –
Cc1ncc(-c2cnc(C(=O)NCc3ccc(Cl)cc3)cc2O[C@H]2CCN3C(=O)OC[C@@H]3C2)o1 [Compound 32] | 2.73 | 0.55 | 76.8 | – | – | 106 | 75 | – | –
CC(C)(O)Cc1cnc(C(=O)NCc2ccc(Cl)cc2)cc1O[C@H]1CCN2C(=O)OC[C@@H]2C1 [Compound 111] | 13.6 | 13.8 | 396 | – | 719 | 1160 | 1120 | – | –
O=C(NCc1ccc(Cl)cc1)c1cc(O[C@H]2CCN3C(=O)OC[C@@H]3C2)c(N2CC(F)C2)cn1 [Compound 125] | 37.7 | 20 | 198 | – | – | 720 | 531 | – | –
N#Cc1cnc(C(=O)NCc2ccc(Cl)cc2)cc1O[C@H]1CCN2C(=O)CC[C@@H]2C1 (racemic) [Compound 158] | 67.9 | 40.7 | 1040 | 574 | 473 | – | – | – | –
N#Cc1ccc(CNC(=O)c2cc(O[C@H]3CCN4C(=O)OC[C@@H]4C3)c(-c3cnn(C(F)F)c3)cn2)c(F)c1 [Compound 84] | 25.9 | 26.7 | 350 | 66.8 | 520 | 345 | 463 | – | –
